Experimental findings from PMC6437697 (Journal of Medicinal Chemistry, 2019) are described below.

Holding throughout (experiment): KINOMEscan
Holding throughout (assay type): binding
What all share (settings): read-out: % control activity remaining

The target of test [1] is T1, ABL1(F317L)-phosphorylated (Homo sapiens, UniProt P00519, F317L).
T1 construct: purchased Eurofins DiscoverX KINOMEscan

Test [2] deals with T2, ABL1-nonphosphorylated (Homo sapiens, UniProt P00519).
T2 construct: purchased Eurofins DiscoverX KINOMEscan

The target in test [3] is T3, ABL1-phosphorylated (Homo sapiens, UniProt P00519).
T3 construct: purchased Eurofins DiscoverX KINOMEscan

Test [4] has as its target T4, ALK(C1156Y) (Homo sapiens, UniProt Q9UM73, C1156Y).
T4 construct: purchased Eurofins DiscoverX KINOMEscan

The target in test [5] is T5, AXL (Homo sapiens, UniProt P30530).
T5 construct: purchased Eurofins DiscoverX KINOMEscan
T5 sequence (P30530 26-894): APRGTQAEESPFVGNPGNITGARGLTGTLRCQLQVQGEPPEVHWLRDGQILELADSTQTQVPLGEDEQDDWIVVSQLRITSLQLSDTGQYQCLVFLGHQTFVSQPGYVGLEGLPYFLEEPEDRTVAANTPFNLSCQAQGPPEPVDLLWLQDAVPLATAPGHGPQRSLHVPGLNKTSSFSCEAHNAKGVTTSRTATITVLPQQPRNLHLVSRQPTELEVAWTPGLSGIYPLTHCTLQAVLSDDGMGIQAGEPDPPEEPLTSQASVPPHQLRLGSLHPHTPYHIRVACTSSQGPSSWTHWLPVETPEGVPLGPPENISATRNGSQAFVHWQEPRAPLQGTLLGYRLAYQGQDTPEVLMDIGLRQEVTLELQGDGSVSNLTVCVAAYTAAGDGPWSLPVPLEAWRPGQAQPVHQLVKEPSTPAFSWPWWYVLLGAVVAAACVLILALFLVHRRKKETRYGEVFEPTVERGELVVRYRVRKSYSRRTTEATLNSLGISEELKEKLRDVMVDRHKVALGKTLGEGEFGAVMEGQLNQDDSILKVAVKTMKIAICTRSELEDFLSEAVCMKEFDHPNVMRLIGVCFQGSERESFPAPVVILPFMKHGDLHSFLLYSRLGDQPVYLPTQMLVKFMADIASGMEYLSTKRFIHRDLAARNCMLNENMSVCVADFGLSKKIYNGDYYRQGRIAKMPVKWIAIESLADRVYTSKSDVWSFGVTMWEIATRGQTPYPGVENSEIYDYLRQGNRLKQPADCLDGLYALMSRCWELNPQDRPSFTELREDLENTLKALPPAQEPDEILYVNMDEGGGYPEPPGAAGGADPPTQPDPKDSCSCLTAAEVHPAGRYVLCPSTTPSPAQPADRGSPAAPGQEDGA

Test [6] has as its target T6, BRAF(V600E) (Homo sapiens, UniProt P15056, V600E).
T6 construct: purchased Eurofins DiscoverX KINOMEscan

In test [7] the target is T7, CAMK2B (Homo sapiens, UniProt Q13554).
T7 construct: purchased Eurofins DiscoverX KINOMEscan

Test [8] deals with T8, CAMKK1 (Homo sapiens, UniProt Q8N5S9).
T8 construct: purchased Eurofins DiscoverX KINOMEscan
T8 sequence (Q8N5S9 whole entry): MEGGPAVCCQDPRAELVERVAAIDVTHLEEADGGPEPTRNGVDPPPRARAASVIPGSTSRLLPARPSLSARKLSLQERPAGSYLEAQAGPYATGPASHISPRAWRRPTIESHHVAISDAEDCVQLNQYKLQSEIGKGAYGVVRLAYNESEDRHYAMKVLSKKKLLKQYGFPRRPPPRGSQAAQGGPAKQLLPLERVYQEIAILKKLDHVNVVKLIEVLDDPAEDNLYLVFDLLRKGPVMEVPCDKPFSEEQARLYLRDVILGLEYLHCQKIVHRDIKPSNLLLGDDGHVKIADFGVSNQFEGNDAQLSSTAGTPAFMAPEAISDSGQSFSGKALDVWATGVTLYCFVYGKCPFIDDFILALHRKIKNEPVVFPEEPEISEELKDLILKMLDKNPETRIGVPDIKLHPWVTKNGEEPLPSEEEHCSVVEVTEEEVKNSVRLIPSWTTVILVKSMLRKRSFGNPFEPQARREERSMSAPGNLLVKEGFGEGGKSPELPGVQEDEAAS

Test [9] has as its target T9, FLT3 (Homo sapiens, UniProt P36888).
T9 construct: purchased Eurofins DiscoverX KINOMEscan
T9 sequence (P36888 27-993): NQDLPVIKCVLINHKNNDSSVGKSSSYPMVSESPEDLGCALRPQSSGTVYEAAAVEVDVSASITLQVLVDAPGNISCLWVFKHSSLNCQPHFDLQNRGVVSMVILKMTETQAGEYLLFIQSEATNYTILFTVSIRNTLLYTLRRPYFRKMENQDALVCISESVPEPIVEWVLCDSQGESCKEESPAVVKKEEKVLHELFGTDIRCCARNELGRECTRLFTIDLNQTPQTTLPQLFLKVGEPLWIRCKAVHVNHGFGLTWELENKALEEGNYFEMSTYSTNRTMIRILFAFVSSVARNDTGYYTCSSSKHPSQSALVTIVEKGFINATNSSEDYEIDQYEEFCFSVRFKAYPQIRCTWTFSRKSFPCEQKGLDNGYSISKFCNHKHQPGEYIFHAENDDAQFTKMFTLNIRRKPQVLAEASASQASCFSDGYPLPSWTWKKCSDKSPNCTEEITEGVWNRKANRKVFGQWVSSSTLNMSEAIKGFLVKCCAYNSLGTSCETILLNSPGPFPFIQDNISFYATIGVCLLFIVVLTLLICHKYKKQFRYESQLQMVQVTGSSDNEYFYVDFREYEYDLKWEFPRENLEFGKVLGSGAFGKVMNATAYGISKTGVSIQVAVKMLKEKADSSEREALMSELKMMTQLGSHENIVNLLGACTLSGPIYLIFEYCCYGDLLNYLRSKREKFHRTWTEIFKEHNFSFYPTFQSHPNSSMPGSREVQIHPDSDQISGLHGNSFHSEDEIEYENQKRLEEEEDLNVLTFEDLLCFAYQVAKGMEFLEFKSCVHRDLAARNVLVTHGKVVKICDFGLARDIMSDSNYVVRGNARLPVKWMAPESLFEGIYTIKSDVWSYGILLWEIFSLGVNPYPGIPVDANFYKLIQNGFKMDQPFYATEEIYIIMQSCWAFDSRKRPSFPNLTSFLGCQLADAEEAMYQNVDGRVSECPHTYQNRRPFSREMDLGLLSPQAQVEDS

Test [10] addresses T10, HPK1 (Homo sapiens, UniProt Q92918).
T10 construct: purchased Eurofins DiscoverX KINOMEscan

The target in test [11] is T11, KIT(D816V) (Homo sapiens, UniProt P10721, D816V).
T11 construct: purchased Eurofins DiscoverX KINOMEscan

For test [12], the target named is T12, LIMK2 (Homo sapiens, UniProt P53671).
T12 construct: purchased Eurofins DiscoverX KINOMEscan

Test [13] concerns the target T13, MYO3A (Homo sapiens, UniProt Q8NEV4).
T13 construct: purchased Eurofins DiscoverX KINOMEscan

The target of test [14] is T14, NDR1 (Homo sapiens, UniProt Q15208).
T14 construct: purchased Eurofins DiscoverX KINOMEscan
T14 sequence (Q15208 whole entry): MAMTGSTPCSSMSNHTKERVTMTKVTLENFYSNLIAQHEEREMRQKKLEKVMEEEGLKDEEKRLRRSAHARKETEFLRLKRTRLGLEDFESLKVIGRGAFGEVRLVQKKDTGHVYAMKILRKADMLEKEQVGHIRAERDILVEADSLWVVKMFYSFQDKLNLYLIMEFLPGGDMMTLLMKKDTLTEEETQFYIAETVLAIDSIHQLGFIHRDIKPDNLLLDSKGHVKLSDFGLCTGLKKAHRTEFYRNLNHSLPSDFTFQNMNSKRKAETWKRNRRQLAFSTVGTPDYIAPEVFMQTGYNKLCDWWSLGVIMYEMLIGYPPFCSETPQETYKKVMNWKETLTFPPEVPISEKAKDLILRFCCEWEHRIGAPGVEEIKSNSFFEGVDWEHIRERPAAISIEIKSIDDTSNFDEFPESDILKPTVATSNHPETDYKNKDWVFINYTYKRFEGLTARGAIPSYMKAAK

For test [15], the target named is T15, PKN2 (Homo sapiens, UniProt Q16513).
T15 construct: purchased Eurofins DiscoverX KINOMEscan

Test [16] addresses T16, PLK2 (Homo sapiens, UniProt Q9NYY3).
T16 construct: purchased Eurofins DiscoverX KINOMEscan

For test [17], the target named is T17, PRKCQ (Homo sapiens, UniProt Q04759).
T17 construct: purchased Eurofins DiscoverX KINOMEscan
T17 sequence (Q04759 whole entry): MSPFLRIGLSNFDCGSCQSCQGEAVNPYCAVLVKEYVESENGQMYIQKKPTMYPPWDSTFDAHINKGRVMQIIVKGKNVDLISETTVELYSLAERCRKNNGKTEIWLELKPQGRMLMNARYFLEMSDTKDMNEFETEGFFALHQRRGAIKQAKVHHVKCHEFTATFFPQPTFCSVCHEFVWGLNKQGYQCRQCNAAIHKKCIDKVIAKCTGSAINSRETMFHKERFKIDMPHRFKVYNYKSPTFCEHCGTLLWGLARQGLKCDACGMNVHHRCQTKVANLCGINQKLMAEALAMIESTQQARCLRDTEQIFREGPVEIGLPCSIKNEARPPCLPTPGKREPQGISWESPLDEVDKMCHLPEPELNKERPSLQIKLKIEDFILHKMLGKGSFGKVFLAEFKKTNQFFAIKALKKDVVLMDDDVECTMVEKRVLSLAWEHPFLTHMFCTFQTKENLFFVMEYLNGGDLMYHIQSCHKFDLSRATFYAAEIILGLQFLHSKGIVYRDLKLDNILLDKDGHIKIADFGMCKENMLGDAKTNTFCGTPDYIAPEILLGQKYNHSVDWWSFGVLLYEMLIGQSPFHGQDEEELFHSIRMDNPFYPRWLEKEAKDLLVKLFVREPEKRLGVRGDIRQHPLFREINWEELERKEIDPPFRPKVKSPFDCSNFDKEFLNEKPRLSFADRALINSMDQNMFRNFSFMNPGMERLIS

Test [18] deals with T18, PRP4 (Homo sapiens, UniProt Q13523).
T18 construct: purchased Eurofins DiscoverX KINOMEscan
T18 sequence (Q13523 whole entry): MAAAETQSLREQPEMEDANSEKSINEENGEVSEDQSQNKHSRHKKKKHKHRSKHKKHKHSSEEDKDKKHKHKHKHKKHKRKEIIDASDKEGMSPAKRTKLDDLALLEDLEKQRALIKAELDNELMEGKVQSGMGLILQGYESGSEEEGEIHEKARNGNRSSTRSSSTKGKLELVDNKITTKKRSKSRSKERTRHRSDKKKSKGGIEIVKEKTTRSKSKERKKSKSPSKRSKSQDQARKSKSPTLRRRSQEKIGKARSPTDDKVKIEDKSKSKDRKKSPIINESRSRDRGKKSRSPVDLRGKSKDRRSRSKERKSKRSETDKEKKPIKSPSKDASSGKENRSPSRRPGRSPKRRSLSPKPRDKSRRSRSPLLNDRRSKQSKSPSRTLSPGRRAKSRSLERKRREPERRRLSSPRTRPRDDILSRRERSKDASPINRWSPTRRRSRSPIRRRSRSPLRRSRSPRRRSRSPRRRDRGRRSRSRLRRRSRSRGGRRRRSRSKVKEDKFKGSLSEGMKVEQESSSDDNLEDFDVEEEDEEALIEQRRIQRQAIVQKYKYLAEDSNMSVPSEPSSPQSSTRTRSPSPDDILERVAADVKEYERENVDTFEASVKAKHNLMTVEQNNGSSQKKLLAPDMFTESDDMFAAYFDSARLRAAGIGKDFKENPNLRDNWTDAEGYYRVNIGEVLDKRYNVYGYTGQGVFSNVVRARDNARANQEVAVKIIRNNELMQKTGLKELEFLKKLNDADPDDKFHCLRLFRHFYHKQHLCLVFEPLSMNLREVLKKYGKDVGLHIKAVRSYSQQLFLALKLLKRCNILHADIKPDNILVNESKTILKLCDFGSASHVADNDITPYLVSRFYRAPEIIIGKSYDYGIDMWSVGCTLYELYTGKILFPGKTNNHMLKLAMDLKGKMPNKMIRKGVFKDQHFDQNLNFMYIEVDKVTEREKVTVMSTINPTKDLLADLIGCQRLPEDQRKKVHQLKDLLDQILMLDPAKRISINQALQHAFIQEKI

Test [19] concerns the target T19, WEE2 (Homo sapiens, UniProt P0C1S8).
T19 construct: purchased Eurofins DiscoverX KINOMEscan

T13 sequence (Q8NEV4 whole entry): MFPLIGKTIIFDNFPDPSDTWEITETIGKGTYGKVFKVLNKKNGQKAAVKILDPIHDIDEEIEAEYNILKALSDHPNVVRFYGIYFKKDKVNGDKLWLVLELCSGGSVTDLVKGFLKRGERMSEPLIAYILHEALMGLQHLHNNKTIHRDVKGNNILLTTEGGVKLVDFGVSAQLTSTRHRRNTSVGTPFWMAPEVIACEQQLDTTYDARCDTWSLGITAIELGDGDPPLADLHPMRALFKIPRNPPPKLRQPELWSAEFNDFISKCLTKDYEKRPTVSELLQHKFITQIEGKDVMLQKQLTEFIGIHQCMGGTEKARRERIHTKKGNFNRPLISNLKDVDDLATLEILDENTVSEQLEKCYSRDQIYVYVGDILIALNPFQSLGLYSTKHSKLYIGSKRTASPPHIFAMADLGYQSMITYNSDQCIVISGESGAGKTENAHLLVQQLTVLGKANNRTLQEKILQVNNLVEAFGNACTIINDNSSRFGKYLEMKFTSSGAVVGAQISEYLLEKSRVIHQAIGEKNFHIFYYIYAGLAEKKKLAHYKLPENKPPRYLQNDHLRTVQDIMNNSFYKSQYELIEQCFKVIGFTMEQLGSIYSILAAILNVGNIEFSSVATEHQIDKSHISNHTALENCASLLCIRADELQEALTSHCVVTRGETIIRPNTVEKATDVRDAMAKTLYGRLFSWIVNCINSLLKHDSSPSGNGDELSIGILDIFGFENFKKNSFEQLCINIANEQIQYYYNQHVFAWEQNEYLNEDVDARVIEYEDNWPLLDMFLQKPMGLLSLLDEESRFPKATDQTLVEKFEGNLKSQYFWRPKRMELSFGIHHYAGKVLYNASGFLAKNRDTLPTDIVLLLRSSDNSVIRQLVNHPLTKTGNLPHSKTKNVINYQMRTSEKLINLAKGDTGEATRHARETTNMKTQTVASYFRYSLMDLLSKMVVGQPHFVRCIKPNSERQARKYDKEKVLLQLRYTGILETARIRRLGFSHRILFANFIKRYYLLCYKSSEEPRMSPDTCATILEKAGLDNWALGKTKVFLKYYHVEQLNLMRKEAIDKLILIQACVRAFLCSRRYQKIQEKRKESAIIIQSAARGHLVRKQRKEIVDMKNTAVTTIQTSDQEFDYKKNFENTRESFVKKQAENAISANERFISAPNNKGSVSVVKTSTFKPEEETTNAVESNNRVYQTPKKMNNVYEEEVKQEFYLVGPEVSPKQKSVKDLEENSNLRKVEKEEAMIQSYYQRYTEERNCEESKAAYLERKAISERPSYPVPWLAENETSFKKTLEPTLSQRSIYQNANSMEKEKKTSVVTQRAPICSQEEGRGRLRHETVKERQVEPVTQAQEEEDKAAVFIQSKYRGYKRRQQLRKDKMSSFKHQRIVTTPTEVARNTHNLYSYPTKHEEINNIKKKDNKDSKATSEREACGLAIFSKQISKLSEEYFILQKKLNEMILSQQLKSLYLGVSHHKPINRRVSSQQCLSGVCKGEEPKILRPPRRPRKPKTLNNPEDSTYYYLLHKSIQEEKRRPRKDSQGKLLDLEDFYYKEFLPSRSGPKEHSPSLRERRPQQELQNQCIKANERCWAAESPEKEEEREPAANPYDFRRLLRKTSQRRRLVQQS
T19 sequence (P0C1S8 whole entry): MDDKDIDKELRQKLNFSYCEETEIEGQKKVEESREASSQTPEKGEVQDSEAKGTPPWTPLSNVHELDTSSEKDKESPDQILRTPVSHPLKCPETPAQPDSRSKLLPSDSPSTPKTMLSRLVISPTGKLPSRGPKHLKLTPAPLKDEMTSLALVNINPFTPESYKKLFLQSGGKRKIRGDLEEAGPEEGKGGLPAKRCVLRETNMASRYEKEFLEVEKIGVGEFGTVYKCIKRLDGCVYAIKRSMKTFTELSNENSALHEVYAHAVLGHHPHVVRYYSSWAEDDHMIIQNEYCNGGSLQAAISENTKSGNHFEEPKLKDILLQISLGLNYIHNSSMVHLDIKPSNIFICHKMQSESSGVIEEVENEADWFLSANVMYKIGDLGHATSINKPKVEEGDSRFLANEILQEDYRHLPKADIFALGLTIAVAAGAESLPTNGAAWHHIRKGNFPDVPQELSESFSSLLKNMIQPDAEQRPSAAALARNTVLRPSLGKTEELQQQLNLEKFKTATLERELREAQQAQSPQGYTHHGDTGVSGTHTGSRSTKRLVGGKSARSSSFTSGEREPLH

With `Clc1cc(NCC2CC2)c2ncc(-c3ccc4[nH]ncc4c3)n2n1` [compound 2, 6-Chloro-N-(cyclopropylmethyl)-3-(1H-indazol-5-yl)imidazo[1,2-b]pyridazin-8-amine], the remaining binding at 1 µM stood at 60% in [1]; 76% in test [2]; 94% in test [3]; 88% in test [4]; 84% in test [5]; 99% in [6]. Moreover, the remaining binding at 1 µM turned out to be 90% in [7]; 94% in [8]; 2.5% in [9]; 75% in test [10]; 78% in test [11]; 94% in [12]. For the same molecule, the remaining binding at 1 µM in test [13] worked out at 96%; in [14], 75%; in test [15], 100%; in test [16], 66%; in test [17] it was 94%; in test [18], 60%. In addition, in test [19], the remaining binding at 1 µM stood at 94%.
In the case of `O=C(CN1CCOCC1)N[C@H]1CC[C@H](Nc2cc(Cl)nn3c(-c4ccc5[nH]ncc5c4)cnc23)CC1` [compound 26], the remaining binding at 1 µM came out at 6.2% in [1]; 44% in test [2]; 54% in test [3]; 64% in test [4]; 88% in [5]; 89% in [6]. In addition, the remaining binding at 1 µM in [7] was determined as 69%; in [8], 52%; in test [9], 3%; in test [10], 88%; in test [11], 29%; in [12], 85%. In addition, the remaining binding at 1 µM in test [13] is 96%; in test [14], 96%; in test [15], 100%; in [16], 100%; in test [17] it was 85%; in test [18] it was 97%. Further, the remaining binding at 1 µM in test [19] was 87%.
As to `CN1CCC(CNc2cc(Cl)nn3c(-c4cc5nc(Nc6ccccc6)[nH]c5cc4F)cnc23)CC1` [compound 31, 6-Chloro-3-(6-fluoro-2-(phenylamino)-1H-benzo[d]imidazol-5-yl)-N-((1-methylpiperidin-4-yl)methyl)imidazo[1,2-b]pyridazin-8-amine], the remaining binding at 1 µM came to 73% in test [1]; 58% in [2]; 81% in test [3]; 91% in test [4]; 99% in test [5]; 98% in test [6]. Moreover, the remaining binding at 1 µM came to 100% in test [7]; 98% in test [8]; 83% in test [9]; 97% in test [10]; 81% in test [11]; 100% in test [12]. Moreover, the remaining binding at 1 µM turned out to be 97% in test [13]; 86% in test [14]; 98% in test [15]; 90% in [16]; 100% in test [17]; 93% in [18]. For the same molecule, in [19], the remaining binding at 1 µM was 97%.
